Laboratory results from US10537559B2, “Isonitramine compound and composition containing same for preventing or treating metabolic diseases” (INJE UNIVERSITY INDUSTRY-ACADEMIC COOPERATION FOUNDATION, priority 2015, dated 2020).

Columns and labels:
HIT-T15 cells = experiment: Insulin secretion of HIT-T15 cells (insulin ELISA); type: cell-based; conditions: FIG. 7
Method: To identify effects of isonitramine derivatives on insulin secretion, a type of insulin cells, e.g., HIT-T15 cells, were obtained by the Korean Cell Line Back, and then, subcultured. In detail, the HIT-T15 cells were cultured in a RPMI1640 medium (available from invitrogen. Co, USA) supplemented with 10% fetal bovine serum (FBS, available from invitrogen. Co, New Zealand 10091-148), 100 mu/ml of penicillin, and 100 μg/ml of streptomycin, under humidification conditions of a temperature of 37° C. and 5% CO2.
Insulin secretion influenced by (+)-isonitramine was measured according to the recommended method using insulin ELISA kit (Cat.10-1113-01, available from Mercodia Company). First, the HIT-T15 cells were loaded to a 96-well plate at a concentration of 5×10^4 cells/well, and cultured until reaching 70% to 80% cell confluency in an incubator at a temperature of 37° C. in a CO2 incubator. Then, the cells were pre-treated with 500 μM alloxan, which induces a pancreatic-specific toxic response, for 30 minutes. Afterwards, (+)-isonitramine was added to each well, and cultured for 24 hours. The culture solution was collected therefrom, and subjected to a centrifugation at a speed of about 15,000 rpm for 3 minutes. […] The changes resulted from the termination of the reaction were measured by using an ELISA-reader (VERSA max, micro-reader, MDS. Co, USA) at a wavelength of 450 nm.

aP2 = experiment: RT-PCR mRNA expression in adipocytes: aP2; type: cell-based, mouse; conditions: FIG. 3, β-actin internal control
Method: (§6) According to the manufacturer's instructions, total cell RNA of the undifferentiated adipocytes and differentiated adipocytes was extracted by using Trizol (available from Invitrogen).
(§7) The RNA (4 μg) was reverse-transcribed into cDNA by using M-MLV reverse transcriptase (available from Promega). Accordingly, the expression of peroxisome proliferator-activated receptor γ (PPARγ), CCAAT/enhancer binding protein-α (C/EBPα), adipocyte protein 2 (aP2), lipoprotein lipase (LPL), and adiponectin was each confirmed.
(§8) The variable number of cycles was used to identify the amplification occurred in the linear phase.
(§9) In the PCR amplification, β-actin was used as an internal control group. The PCR products were separated by using 2.0% agarose gel, followed by being visualized by RedSafe nucleic acid staining (available from Intron, Korea) and UV irradiation.

zebrafish = experiment: Postprandial hyperglycemia in diabetic-inducible (streptozocin) zebrafish; type: in vivo; conditions: FIG. 6; STZ-injected zebrafish fed flake mixed with compound at various concentrations for 1 hour
Method: The zebrafish was anesthetized by placing it in water at a temperature of 8° C. for 20 seconds.
For intraperitoneal injection, 350 mg/kg of a solution of 0.9% streptozocin (available from Sigma, St. Louis, Mo.) in 0.09% NaCl solution was injected with a syringe having 25 gauge needle (available from Trajan Scientific, Australia). Here, to a control group of zebrafish, the same amount of PBS was injected intraperitoneally. After the completion of the injection, the test and control groups of zebrafish were bread at a temperature of 24° C.
The zerafish was subjected to intraperitoneal injection of STZ or PBS three times (350 mg/kg) for a week. After the final injection, the zerafish was fed with commercial flake food (available from Tetrabits tropical flakes, Tetra, Germany) for 5 days.
After fasting for 24 hours, the zebrafish to which PBS was injected was fed with commercial flask food, and the zebrafish to which STZ was injected was fed with flake mixed with (+)-isonitramine (1) at various concentrations, for 1 hour. Afterwards, plasma blood of each zebrafish was enzymatically measured by using a glucose trinder kit.

zebrafish larvae = experiment: Zebrafish toxicity (FIG. 5); type: in vivo; conditions: zebrafish model
zf preproinsulin (insa) = experiment: Insulin expression in zebrafish embryo (RT-PCR); type: in vivo; conditions: FIG. 8; zebrafish embryo 96 hpf treated 48 hours
Method: (§1) In the experiment performed to verify the effect on the amount of insulin secretion, the zebrafish embryo underwent 96 hour post-fertilization (hpf) was exuviated, and then, treated with isonitramine for 48 hours. In the experiment performed to verify the effect on gluconeogenesis, 100 mM cyclic AMP (cAMP) and 100 mM dexamethasone (DEX) were simultaneously treated with isonitramine, and then, cultured for 48 hours.
(§2) From the cultured embryo above, TRIzol (available from Invitrogen) was used to isolate mRNA, and the isolated RNA was synthesized to cDNA by using iScript cDNA Synthesis Kit (available from Bio-Rad). Afterwards, to amplify the cDNA, primers listed in Table 2 were used, wherein each primer was purchased from Bioneer.

adiponectin = experiment: RT-PCR mRNA expression in adipocytes: adiponectin; type: cell-based, mouse; conditions: FIG. 3, β-actin internal control
Method: as §6, §7, §8, §9

porcine α-amylase = target: T1, porcine α-amylase (Sus scrofa, UniProt P00690); experiment: Inhibitory effect on porcine α-amylase; type: biochemical; conditions: FIG. 4; 100 μM, pH 6.8, starch substrate
T1 construct: purchased Sigma
T1 sequence (P00690 16-511): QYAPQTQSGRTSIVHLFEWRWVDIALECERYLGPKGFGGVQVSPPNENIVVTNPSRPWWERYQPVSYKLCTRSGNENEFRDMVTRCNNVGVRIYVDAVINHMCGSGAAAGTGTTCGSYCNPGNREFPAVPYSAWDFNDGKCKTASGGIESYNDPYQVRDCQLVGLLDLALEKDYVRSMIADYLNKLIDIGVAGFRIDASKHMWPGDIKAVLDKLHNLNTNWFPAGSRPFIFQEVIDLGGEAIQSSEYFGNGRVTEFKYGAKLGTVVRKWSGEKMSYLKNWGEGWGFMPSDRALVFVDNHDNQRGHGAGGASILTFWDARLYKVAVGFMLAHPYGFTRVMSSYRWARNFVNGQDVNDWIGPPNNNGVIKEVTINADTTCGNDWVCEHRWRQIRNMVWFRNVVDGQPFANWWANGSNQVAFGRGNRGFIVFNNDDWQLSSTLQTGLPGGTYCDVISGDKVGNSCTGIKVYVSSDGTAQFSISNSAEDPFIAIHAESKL
Method: (§3) A glucose assay kit was purchased for use from Youngdong Company (Seoul, Korea). In addition, from Sigma Company, porcine α-amylase, yeast α-glucosidase, 3,5-dinitrosalicylic acid (DNS), p-nitrophenol glucoside (pNPG), rat intestinal acetone powder, sucrose, and maltose were purchased. Soluble starch was obtained from Samchun Chemical Company (Seoul, Korea), and Acarbose was purchased from Tokyo chemical industry Company (Tokyo, Japan).
5 μl of α-amylase (0.1 U/mL) was diluted with 50 mM phosphate buffer (pH 6.8), and the diluted solution was mixed with each of 100 μM (+)-isonitramine (1) or Compound 2 to 6 of Example 1. In addition, as a positive control group, Acarbose was mixed at the same concentration with (+)-isonitramine (1). […]
25 μl of DNS was added to the cooled reaction solutions, and a color reaction was induced at a temperature of 100° C. for 5 minutes. […] The solutions in which the color reaction was induced were transferred to a 96-well plate, and absorbance thereof was measured at a wavelength of 540 nm by using a 96-well microplate reader.
Here, the inhibitory effect was calculated according to Equation 1: Enzymatic inhibitory activity=(1−Ax/A0)×100% [Equation 1] • Ax indicates an absorbance value of […] upon treatment of isonitramine

yeast α-glucosidase = target: T2, yeast α-glucosidase (Saccharomyces cerevisiae, UniProt P53341); experiment: Inhibitory effect on yeast α-glucosidase (pNPG substrate); type: biochemical; conditions: FIG. 4; 100 μM, pH 5.6, pNPG substrate
T2 construct: purchased Sigma
T2 sequence (P53341 whole entry): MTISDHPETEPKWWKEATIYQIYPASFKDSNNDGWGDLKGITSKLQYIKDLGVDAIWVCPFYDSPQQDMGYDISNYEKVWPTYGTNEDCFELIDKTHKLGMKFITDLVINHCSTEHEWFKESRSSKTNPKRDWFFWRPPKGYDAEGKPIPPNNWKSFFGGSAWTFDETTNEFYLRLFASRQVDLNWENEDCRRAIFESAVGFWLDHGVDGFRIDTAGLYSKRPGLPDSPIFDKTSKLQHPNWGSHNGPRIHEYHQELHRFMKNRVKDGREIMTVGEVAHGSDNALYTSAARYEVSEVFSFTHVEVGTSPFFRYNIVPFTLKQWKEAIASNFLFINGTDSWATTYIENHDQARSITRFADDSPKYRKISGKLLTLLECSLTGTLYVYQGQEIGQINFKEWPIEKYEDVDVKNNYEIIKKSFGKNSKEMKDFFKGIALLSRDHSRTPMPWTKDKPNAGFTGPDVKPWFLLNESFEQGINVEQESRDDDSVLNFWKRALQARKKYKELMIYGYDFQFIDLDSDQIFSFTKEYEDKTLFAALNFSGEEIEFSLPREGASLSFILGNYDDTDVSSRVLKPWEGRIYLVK
Method: as §3
5 μl of […] (0.1 U/mL) was diluted with 50 mM sodium acetate buffer (pH 5.6), and the diluted solution was mixed with each of 100 μM (+)-isonitramine (1) or Compound 2 to 6 of Example 1. In addition, as a positive control group, Acarbose was mixed at the same concentration with (+)-isonitramine (1).
The mixtures were pre-cultured at a temperature of 37° C. for 10 minutes, and 25 μl of pNPG was added thereto, followed by being cultured at a temperature of 60° C. for 10 minutes. Then, 1N NaOH was added thereto to stop the reaction.
Afterwards, the resulting solution in which a color reaction was induced was transferred to a 96-well plate, and absorbance thereof was measured at a wavelength of 405 nm by using a 96-well microplate reader.

[1] = test system: 3T3-L1 mouse preadipocytes; experiment: Analysis of triglyceride concentration in differentiated adipocytes; type: cell-based; conditions: FIG. 2B; adipocytes differentiated 8 days with 100 μM or 500 μM
Method: (§4) 3T3-L1 mouse preadipocytes were cultured in a Dulbecco's modified Eagle's medium (DMEM) supplemented with 10% newborn calf serum (Gibco BRL, NY, USA) and antibiotics (100 U/ml penicillin and 100 μg/ml streptomycin, Gibco BRL, NY, USA) in an incubator under humidification conditions of a temperature of 37 r and 5% CO2.
(§5) Afterwards, the cultured 3T3-L1 mouse cells were treated with 0.5 mM 1-methyl-3-isobutylxanthine purchased from Sigma (St. Louis, Mo.), 1 μM dexamethasone, 1 μg/mL insulin, and 10% fetal bovine serum (FBS, Gibco BRL), and then, cultured for 2 days to induce differentiation. After 2 days, the cultured medium was replaced with a fresh DMEM supplemented with 10% FBS and 1 μg/mL insulin. For the next 4 days, the cultured medium was replaced with a fresh DMEM supplemented with 10% FBS every day.
The concentration of triglyceride in the cells was measured by using a triglyceride reagent purchased from Sigma and a free glycerol reagent.
The adipocytes were differentiated for 8 days with (+)-isonitramine 1 at a concentration of 100 μM or 500 μM, in a 6-well plate.
To analyze the concentration of triglyceride in the cells, the cells were washed with PBS, and then, lysed with 100 μl of a lysis buffer. […]
Following the completion of the culturing, the absorbance of the cells was measured by using a spectrophotometer at a wavelength of 540 nm.

PPARγ = experiment: RT-PCR mRNA expression in adipocytes: PPARγ; type: cell-based, mouse; conditions: FIG. 3, β-actin internal control
Method: as §6, §7, §8, §9

LPL = experiment: RT-PCR mRNA expression in adipocytes: LPL; type: cell-based, mouse; conditions: FIG. 3, β-actin internal control
Method: as §6, §7, §8, §9

[2] = test system: metabolic enzymes essential for carbohydrate absorption; experiment: Selectivity of inhibition of carbohydrate metabolism enzymes (FIG. 4); type: biochemical; conditions: 100 μM, as compared with Compound 4 to 6
Method: The mixtures were pre-cultured at a temperature of 37° C. for 10 minutes, and 25 μl of 0.5% starch solution was added thereto, followed by being cultured at a temperature of 37° C. for 10 minutes. Then, the mixtures were cultured again at a temperature of 100° C. for 5 minutes to stop the reaction, and the mixtures were cooled.
25 μl of DNS was added to the cooled reaction solutions, and a color reaction was induced at a temperature of 100° C. for 5 minutes. The resulting solutions were cooled again. The solutions in which the color reaction was induced were transferred to a 96-well plate, and absorbance thereof was measured at a wavelength of 540 nm by using a 96-well microplate reader.
Here, the inhibitory effect was calculated according to Equation 1: Enzymatic inhibitory activity=(1−Ax/A0)×100% [Equation 1] • Ax indicates an absorbance value of a control group • A0 indicates an absorbance value of a test group upon treatment of isonitramine

[3] = test system: 3T3-L1 mouse preadipocytes; experiment: Cytotoxicity in adipocyte differentiation experiment; type: cell-based; conditions: FIG. 3; adipocytes
C/EBPα = conditions: FIG. 3; RT-PCR, β-actin internal control
Method: as §6, §7, §8, §9

[4] = test system: 3T3-L1 mouse preadipocytes; experiment: Adipocyte differentiation of 3T3-L1 preadipocytes (Nile red staining); type: cell-based; conditions: FIG. 2A
Method: as §4, §5
The undifferentiated or differentiated cells were washed three times with phosphate-buffered saline (PBS), and then, fixed with 4% […] (PFA) at room temperature for 1 hour. Afterwards, the resulting cells were washed three times with PBS, and stained with 0.5 μg/ml of nile red (available from Sigma, St. Louis, Mo.) for 10 minutes. Following the completion of the staining, the resulting cells were washed with PBS, and the nuclei thereof were stained again with 4′-6-diamidino-2-phenylindole, (DAPI, available from Invitrogen). […]

[5] = test system: phosphoenolpyruvate carboxykinase (PEPCK); experiment: PEPCK expression in zebrafish embryo (RT-PCR); type: in vivo; conditions: FIG. 9, with 100 mM cAMP and 100 mM dexamethasone, 48 hours
Method: as §1, §2

Row | Compound | insulin secretion (HIT-T15 cells; HIT-T15 cells treated with 500 μM alloxan, normal state 33.39±1.12 ng/mL (n=4)) [ng/mL] | mRNA expression of aP2 (aP2) | blood glucose (zebrafish) | cardiovascular toxicity (zebrafish larvae) | developmental toxicity (zebrafish larvae) | insulin secretion (HIT-T15 cells; HIT-T15 cells pre-treated with 500 μM alloxan 30 minutes, then compound 24 hours) | expression of insulin (zf preproinsulin (insa)) | mRNA expression of adiponectin (adiponectin) | inhibition of α-amylase (porcine α-amylase) | inhibition of α-glucosidase (yeast α-glucosidase) | concentration of triglyceride [1] | mRNA expression of PPARγ (PPARγ) | mRNA expression of LPL (LPL) | selective inhibitory effects on metabolic enzymes essential for carbohydrate absorption [2] | cytotoxicity [3] | mRNA expression of C/EBPα (C/EBPα) | differentiation of 3T3-L1 mouse preadipocytes into mature adipocytes [4] | inhibitory effect on the expression of PEPCK [5]
1 | O=C1NC(=O)C(=O)C(=O)N1 [alloxan, reference compound] | 18.92 ± 0.43 | – | – | – | – | – | – | – | – | – | – | – | – | – | – | – | – | –
2 | O[C@@H]1CCCC[C@]12CCCNC2 [(+)-isonitramine (1), (+)-isonitramine] | – | weakened | reduction of blood glucose in a concentration-dependent manner | no | no | increasing the insulin secretion in a concentration-dependent manner | increased | weakened | hardly inhibited | inhibiting | decreased the concentration of triglyceride in a concentration-dependent manner | inhibited | weakened | selective inhibitory effects | without cytotoxicity | inhibited | inhibited the differentiation | significantly increased in proportion to the concentration
